{"source": "patent US6573291B2", "about": "“Method and use” (Biovitrum AB, priority 2000, dated 2003)", "key": {"human GLP-1 receptor": {"biological_target": "T1, human GLP-1 receptor (Homo sapiens, UniProt P43220)", "T1 construct": "expressed in transfected cells; host or cells: COS7 cells (COShGLPr, clone #16)", "T1 sequence (P43220 24-463)": "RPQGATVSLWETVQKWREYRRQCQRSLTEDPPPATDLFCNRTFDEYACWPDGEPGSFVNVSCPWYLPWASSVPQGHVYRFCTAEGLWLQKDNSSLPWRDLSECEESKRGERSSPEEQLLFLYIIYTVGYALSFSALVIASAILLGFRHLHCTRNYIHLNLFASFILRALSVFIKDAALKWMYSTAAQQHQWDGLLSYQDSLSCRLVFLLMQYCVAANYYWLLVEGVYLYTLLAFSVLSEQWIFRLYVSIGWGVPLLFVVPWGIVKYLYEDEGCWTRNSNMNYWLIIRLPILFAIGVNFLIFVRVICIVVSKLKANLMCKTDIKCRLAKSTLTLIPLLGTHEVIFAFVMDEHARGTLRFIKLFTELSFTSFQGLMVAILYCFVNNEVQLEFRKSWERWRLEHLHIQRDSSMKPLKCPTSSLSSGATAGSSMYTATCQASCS", "assay": "Inhibition of 125I-GLP-1 binding to human recombinant GLP-1 receptors (SPA)", "conditions": "125I-GLP-1, membranes of COS7 cells transfected with human GLP-1 receptor, Cheng-Prushoff equation; read-out: K1 value, inhibition of the binding of GLP-1 to its receptor", "procedure": "Wheatgerm agglutinin scintillation proximity assay (SPA) beads (500 mg) from Amersham (RPNQ 0001) were diluted into 50 ml of assay buffer (Assay buffer consisted of 150 mM NaCl, 10 mM MgCl2, 1 mM EDTA, and 20 mM HEPES, pH 7.4). The SPA beads were combined (1:1 v/v) with a crude membrane preparation from COS7 cells transfected with the human GLP-1 receptor at a concentration of 30 μg/ml/well. These cells (COShGLPr, clone #16) were grown in Dulbecco's Modified Eagle Medium with high glucose (DMEM Gibco, #11965-092) supplemented with 10% heat-inactivated fetal bovine serum (Gibco, #1600-044), 2 mM L-Glutamine (Gibco #25030-081), and 10 μg/ml Gentamicin (Gibco #15710-064) with 705 μg/ml Geneticin (G418 sulfate, Gibco) (DMEM complete). The mixture was incubated for two hours at room temperature with constant rotation. The free membranes were washed away by centrifuging the mixture for 5 minutes at 800 rpm in a table-top GLCl (Sorvall) centrifuge. The supernatant was discarded and the pellet was resuspended in 50 ml assay buffer+0.1% bovine serum albumin. […] The plates were counted approximately 10 h later in a Microbeta Trilux liquid scintillation counter (WALLAC). […] Binding constants (Ki) were calculated with the Cheng-Prushoff equation (Cheng Y C and Prushoff W H, Biochem Pharmacol 22:3099, 1973). […]"}, "RIN-m5F cells": {"system": "RIN-m5F cells", "assay": "Inhibition of GLP-1 stimulated insulin release in RIN-m5F cells", "type": "cell-based", "conditions": "for GLP-1 induced insulin release: 3 nM GLP-1, 1 h, compounds 0.1 μM to 30 μM, FIG. 3", "procedure": "The RIN-m5F cells were grown as in Example 2. The cells were plated in 96-well plates (10,000 per well) at a density of 2×10^5 cells per ml and grown for 3 days. The culture medium was changed the day before the experiment. On the day of the experiment, the medium was removed and replaced with serum-free RPMI 1640 containing 0.1% bovine serum albumin (serum-free medium). Dilutions of compounds prepared in serum-free medium from 10 mM DMSO stock solutions to give final concentrations from 0.1 μM to 30 μM were added. The cells were stimulated with 3 nM GLP-1 in a total volume of 200 μl for 1 h and the concentration of insulin in the medium was measured in an ELISA (Mercodia AB). The insulin release in the presence of medium was 6.3±1.4 ng/ml and 10.5±1.4 ng/ml in the presence of 3 nM GLP-1."}, "[1]": {"biological_target": "T2, endogenous GLP-1 receptor coupled to adenylate cyclase (Rattus norvegicus, UniProt P32301)", "T2 construct": "host or cells: RIN-m5F insulinoma cells", "T2 sequence (P32301 22-463)": "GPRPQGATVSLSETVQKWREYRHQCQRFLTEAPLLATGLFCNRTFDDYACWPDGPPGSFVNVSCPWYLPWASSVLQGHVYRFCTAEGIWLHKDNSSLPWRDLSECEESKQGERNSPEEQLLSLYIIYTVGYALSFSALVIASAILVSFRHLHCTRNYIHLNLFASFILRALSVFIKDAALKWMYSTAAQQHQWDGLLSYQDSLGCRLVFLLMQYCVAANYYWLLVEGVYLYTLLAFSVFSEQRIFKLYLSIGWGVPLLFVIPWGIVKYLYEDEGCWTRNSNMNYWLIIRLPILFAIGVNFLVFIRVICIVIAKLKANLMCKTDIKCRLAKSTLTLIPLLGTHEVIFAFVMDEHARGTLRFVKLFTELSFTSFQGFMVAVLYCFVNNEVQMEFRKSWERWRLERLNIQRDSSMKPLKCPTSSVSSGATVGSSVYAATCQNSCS", "assay": "Inhibition of GLP-1 induced cAMP signaling in RIN-m5F insulinoma cells", "type": "cell-based", "conditions": "3 nM GLP-1, 15 minutes, FIG. 2", "procedure": "The cells were obtained from the American Type Culture Collection (ATCC, #203641 F13132) and grown in RPMI 1640 (GIBCO, #21870-076) supplemented with 2 mM L-glutamine, 10% heat inactivated fetal bovine serum, and 10 μg/ml Gentamicin.\nRIN-m5F cells were plated in 12 well plates at a density of 2.0×10^5 cells per ml and grown for 4 days in complete RPMI 1640 with 10% fetal bovine serum; the medium was changed the day before experiment. The cells were from 70-90% confluent at the time of the experiment. On the day of the experiment, the incubation medium was removed and the cells were washed with fresh serum-free RPMI 1640 containing 0.1% bovine serum albumin (serum-free medium). One ml DMEM complete with 1 mM 3-isobutyl-1-methylxanthine (Sigma) was added and the plates were placed at 37° C. and 5.0% CO2 for 15 minutes before initiation of the experiment. Fresh compounds were acquired and dissolved as 10 mM solutions in DMSO. A further 1:10 dilution was prepared in DMEM and after the incubation period, the compounds were added to the wells at 30 μM final concentration. The final concentration of DMSO was always 0.3%. The wells were treated with or without GLP-1 (3 nM). The plates were then incubated at 37° C. and 5.0% CO2 for 15 minutes. […] The solution was mixed well and quantitatively transferred to microcentrifuge tubes with 1 wash of 0.5 ml of the 50 mM NaOH solution. […]"}}, "data": [{"compound": "Cc1nn(C)c(/C=C/Nc2cc(Cl)ccc2O)c1[N+](=O)[O-]", "note": "[Compound A, 4-chloro-2-{[(E)-2-(1,3-dimethyl-4-nitro-1H-pyrazol-5-yl)ethenyl]amino}phenol]", "values": [{"measurement": "Ki", "setting": "human GLP-1 receptor", "result": "~1000", "unit": "nM"}, {"measurement": "GLP-1 induced insulin release", "setting": "RIN-m5F cells", "result": "substantial reduction of the GLP-1 induced insulin release"}, {"measurement": "GLP-1 stimulated cAMP production", "setting": "[1]", "result": "concentration dependently decreased GLP-1 stimulated cAMP production to a level close to that obtained in the absence of GLP-1"}]}, {"compound": "Cc1nn(C)c(/C=C/Nc2ccc(F)cc2)c1[N+](=O)[O-]", "note": "[Compound B, 4-fluoro-1-{[(E)-2-(1,3-dimethyl-4-nitro-1H-pyrazol-5-yl)ethenyl]amino}benzene]", "values": [{"measurement": "GLP-1 induced insulin release", "setting": "RIN-m5F cells", "result": "substantial reduction of the GLP-1 induced insulin release"}]}, {"compound": "Cc1nn(C)c(/C=C/Nc2ccc(OC(F)(F)F)cc2)c1[N+](=O)[O-]", "note": "[Compound C, 4-trifluoromethoxy-1-{[(E)-2-(1,3-dimethyl-4-nitro-1H-pyrazol-5-yl)ethenyl]amino}benzene]", "values": [{"measurement": "GLP-1 induced insulin release", "setting": "RIN-m5F cells", "result": "substantial reduction of the GLP-1 induced insulin release"}]}, {"compound": "COc1ccc(N/C=C/c2c([N+](=O)[O-])c(C)nn2C)c(OC)c1", "note": "[Compound D, 2,4-dimethoxy-1-{[(E)-2-(1,3-dimethyl-4-nitro-1H-pyrazol-5-yl)ethenyl]amino}benzene]", "values": [{"measurement": "GLP-1 induced insulin release", "setting": "RIN-m5F cells", "result": "substantial reduction of the GLP-1 induced insulin release"}]}, {"compound": "Glucagon-like peptide 1(7-36)amide [GLP-1, reference compound]", "values": [{"measurement": "insulin release", "setting": "RIN-m5F cells; in the presence of 3 nM GLP-1 alone, 1 h (medium 6.3±1.4 ng/ml)", "result": "10.5 ± 1.4", "unit": "ng/mL"}]}]}
